Laboratory results as given in paper PMC8287724, “Reducing Auditory Nerve Excitability by Acute Antagonism of Ca^2+-Permeable AMPA Receptors” (Frontiers in Synaptic Neuroscience, 2021).
pIC50: −log10 of the molar value. Values joined by “and” are separate entries in the source; they are usually repeats but may differ in a detail not shown here. Equal entries are not always repeated.

Columns and labels:
[1] = tested on: auditory nerve compound action potential (CAP); experiment: Auditory nerve CAP during intracochlear (apical) perfusion; format: in vivo, guinea pig
Description: (§1) This study utilized 21 NIH-strain, pigmented guinea pigs weighing from 400 to 650 g, in accordance with policies and protocols approved by the Institutional Animal Care and Use Committee at Washington University in St. Louis (20180133, 20190035). Animals were anesthetized with intraperitoneal (IP) injection of 100 mg/kg sodium thiobutabarbital (Inactin, Sigma, St. Louis, MO). Once anesthetized, the fur from the head and neck was shaved and a tracheal cannula was placed. The animal was maintained on 0.8–1.2% isoflurane in oxygen using a mechanical ventilator. The ventilator's tidal volume was adjusted to maintain a 5% end-tidal CO2 which was monitored with a CapnoTrue AMP (Bluepoint Medical, Zevenaar, The Netherlands). Body temperature was maintained at 38 degrees C with a DC-powered heating blanket-rectal thermometer (Model 50-7079; Harvard Apparatus). Heart rate and oxygen saturation were monitored with a pulse oximeter (Surgivet, Waukesha, WI). The auditory bulla was exposed ventrally for placement of recording electrodes. The jugular vein was cannulated to maintain hydration with 0.5 mL per hour of Lactated Ringer's solution. To prevent middle ear muscle contractions, vecuronium bromide (0.2 mg/kg) was administered immediately prior to data collection and every 1.5 h thereafter.
The head was stabilized in a head-holder with a solid ear bar on the left side and hollow ear bar on the right side, a bite bar, and a snout clamp. Sound calibration, stimulus generation, and recording methods have been detailed previously (Lichtenhan et al., [2016a], [2017]). Briefly, cochlear function measurements were made using MATLAB software (The MathWorks, Natick, MA) and the software utility Playrec. The stimulus was first generated in MATLAB, digitized at 96 kHz, presented to a 24-bit sound card (RME: Fireface802; Sweetwater, Fort Wayne, IN), and then routed to an acoustic probe system (ER-10X; Etymotic Research, Fort Wayne, IN). The ER-10X microphone was calibrated using a reference microphone (1/8” GRAS type 40P) and a custom-made coupling system was used for setting stimulus levels. Sound was presented through the hollow ear bar on the right side via the ER-10X microphone probe.
Cochlear output was recorded as a field potential between a Ag/AgCl ball electrode in the cochlear round window niche and a platinum needle electrode at the vertex of the cranium. Responses to 20 tone bursts (10 with reversed polarity) were averaged for each CAP measurement at a given frequency and level. The CAP audiogram was measured (1–22 kHz, 1/4 octave steps) at the beginning and end of the experiment to determine CAP threshold as a function of tone-burst frequency. Prior to and immediately after IEM-1460 perfusions via the apical cochlear fenestration (see below), CAPs were evoked by tone bursts at selected frequencies and levels. Measurements were repeated at 1- to 2-min intervals to monitor cochlear output and to ensure response stationarity for at least 25 min prior to drug delivery. Data with baseline changes >20% were excluded. The round window niche was monitored for accumulation of fluid.
At each probe frequency, CAP peak-to-peak amplitudes were measured from the first trough (N1) to the first peak (P1). Latencies were measured to the trough of N1. Cochlear output was compared before and after intraperitoneal drug delivery. The data were tested for normality using a Kolmogorov-Smirnov test. For CAP amplitude and latency, significance was assessed with the Mann-Whitney U-test. The Wilcoxon signed rank test was used to assess CAP threshold. Friedman test was used to compare concentrations of drug between perilymph and CSF. A p < 0.05 was considered statistically significant. A Bonferroni correction was used when performing multiple comparison testing. All statistical tests were performed with IBM SPSS Statistics Version 27 (SPSS Inc., Chicago, IL, United States). […]

[2] = tested on: GluA2-lacking AMPARs; parameters: method as in Magazanik et al., 1997; Buldakova et al., 1999; details: ref Magazanik et al., 1997; Buldakova et al., 1999; read-out: IC50 on cells expressing GluA2-lacking AMPARs; cited from earlier work
[3] = tested on: GluA2-containing AMPARs; parameters: method as in Magazanik et al., 1997; Buldakova et al., 1999; details: ref Magazanik et al., 1997; Buldakova et al., 1999; cited from earlier work
[4] = Heart rate and blood oxygenation monitoring during systemic dosing; format: in vivo, guinea pig; details: IP injection: IEM-1460 13.5 mg/kg, IEM-1925 8 mg/kg; N = 4
Description: as §1, with “To prevent middle ear muscle contractions, vecuronium bromide (0.2 mg/kg) was administered immediately prior to data collection and every 1.5 h thereafter.” left out
Systemic delivery of IEM-1925 (8 mg/kg, IP) reduced CAP amplitude to a similar extent as IEM-1460 (13.5 mg/kg, IP). […] Blood oxygenation and heart rate were monitored along with cochlear physiology during the time course of the experiment. […]

[5] = 100 μM, across tone levels and frequencies

SMILES	reduction of tone-evoked CAP amplitude ([1]; 10 μM in perfusion)	reduction of CAP amplitude ([1]; 100 μM in perfusion pipette, 80 dB SPL tones at 2 and 16 kHz, average)	reduction of CAP amplitude relative to pre-drug baseline ([1]; 100 μM, 2 kHz tones)	reduction of CAP amplitude relative to pre-drug baseline ([1]; 100 μM, 16 kHz tones)	additional CAP delay [1, 5]	increase of CAP latency relative to pre-drug [1, 5]	change in CAP threshold ([1]; 100 μM, frequencies from 1 to 20 kHz)	pIC50 ([1]; Cavia porcellus, intracochlear perfusion 0.1 to 4,000 μM, 80 dB SPL probe, averaged for 2 and 16 kHz tones, Boltzmann fit, read-out: IC50, concentration for a 50% CAP reduction)	reduction of CAP amplitude ([1]; acute intracochlear delivery, all tone levels and frequencies (abstract, concentration not stated))	pIC50 [2]	pIC50 [3]	temporary reduction in heart rate [4]
C[N+](C)(C)CCCCCNCC12CC3CC(CC(C3)C1)C2 [IEM-1460]	~ 25%	~ 55%	~ 60%	~ 30%	~ 0.3 ms	~ 10% and 10%	< 5 dB SPL	~4.14	> 50%	5.52 to 6.00	2.96 to 3.30	–
NCCCCCNC1(c2ccccc2)CCCCC1 [IEM-1925]	–	–	–	–	–	–	–	–	–	–	–	No such reduction
